Experimental data: ChEMBL document CHEMBL5244255, “An insight on medicinal attributes of 1,2,4-triazoles” (Eur J Med Chem, 2020)
Values after ≈ are worked out from the molar mass of the structure shown.

Columns and labels:
Staphylococcus aureus = test: Antibacterial activity against Staphylococcus aureus assessed as bacterial growth inhibition incubated for 16 hrs; type: functional
Candida albicans = test: Antifungal activity against Candida albicans Y0109 assessed as fungal growth inhibition; type: functional
BT-20 = test: Anticancer activity against human BT-20 cells assessed as cell growth inhibition incubated for 48 hrs by MTT assay; type: functional, cell-based; conditions: BT-20, 48 h
DU-145 = test: Anticancer activity against human DU-145 cells assessed as cell growth inhibition incubated for 48 hrs by MTT assay; type: functional, cell-based; conditions: DU-145, 48 h
A549 = test: Anticancer activity against human A549 cells assessed as cell growth inhibition incubated for 48 hrs by MTT assay; type: functional, cell-based; conditions: A549, 48 h
[1] = Anticancer activity against human SK-MEL-128 cells assessed as cell growth inhibition incubated for 48 hrs by MTT assay; type: functional, cell-based; conditions: SK-MEL-128, 48 h
[2] = system: Mycobacterium tuberculosis; test: Antimycobacterial activity against Mycobacterium tuberculosis H37Rv; type: functional
[3] = system: Mycobacterium tuberculosis; test: Antimycobacterial activity against Mycobacterium tuberculosis H37Rv measured after 8 to 9 days; type: functional; conditions: time 8-9 day
[4] = Inhibition of Mycobacterium tuberculosis shikimate dehydrogenase
Leishmania major [5] = test: Potency index, ratio of test compound IC50 to miltefosine IC50 for antileishmanial activity against promastigotes stage of leishmania major; type: functional
Leishmania major [6] = test: Antileishmanial activity against promastigotes stage of Leishmania major; type: functional, organism-based
Leishmania major [7] = test: Potency index, ratio of test compound IC50 to amphotericin B IC50 for antileishmanial activity against promastigotes stage of leishmania major; type: functional
Trypanosoma cruzi [8] = test: Trypanocidal activity against amastigote stage of Trypanosoma cruzi; type: functional, organism-based
Trypanosoma cruzi [9] = test: Trypanocidal activity against epimastigote stage of Trypanosoma cruzi; type: functional, organism-based
[10] = system: Mycobacterium tuberculosis; test: Antimycobacterial activity against Mycobacterium tuberculosis H37Rv measured after 21 days; type: functional; conditions: 504 h, time 21 day
Plasmodium falciparum = test: Antimalarial activity against Plasmodium falciparum; type: functional, organism-based
MDA-MB-231 = test: Antiproliferative activity against human MDA-MB-231 cells assessed as cell growth inhibition by MTT assay; type: functional, cell-based
[11] = system: Mycobacterium tuberculosis; test: Antimycobacterial activity against Mycobacterium tuberculosis H37Rv measured […] by MABA assay; type: functional
[12] = system: Mycobacterium tuberculosis; test: Potency index, ratio of test compound MIC to Pyrazinamide MIC for antimycobacterial activity against Mycobacterium tuberculosis H37Rv; type: functional
[13] = Plasmodium falciparum, read-out: IC50

Cc1ccc(C(=O)NCc2nnc(S)n2/N=C/c2ccc([N+](=O)[O-])cc2)cc1
MIC (Staphylococcus aureus): 3.12 µg/mL (≈ 7.88 µM)

CCCCCCCCCCCC(=O)OC1CCN(CC(O)(Cn2cncn2)c2ccc(F)cc2F)CC1 (stereo unspecified)
MIC80 (Candida albicans): 9 nM (≈ 4.69 ng/mL)

Nn1c(Cc2ccc(Cl)c(Cl)c2)nn(CC(=O)NNC(=O)c2cc3cc(Cl)ccc3oc2=O)c1=O
IC50 (BT-20): 3.1 µg/mL (≈ 5.76 µM)
IC50 (DU-145): 3.1 µg/mL (≈ 5.76 µM)
IC50 (A549): 3.1 µg/mL (≈ 5.76 µM)
IC50 [1]: 3.1 µg/mL (≈ 5.76 µM)

CC1CC(C)(C)CC(O)(c2nnc(-c3ccncc3)[nH]2)C1 (stereo unspecified)
MIC [2]: 0.59 µg/mL (≈ 2.06 µM)

CCCCCCCC(=O)OC1CCN(CC(O)(Cn2cncn2)c2ccc(F)cc2F)CC1 (stereo unspecified)
MIC80 (Candida albicans): 9 nM (≈ 4.18 ng/mL)

Brc1ccc(OCc2nn3c(-c4ccc(Br)cc4)nnc3s2)cc1
MIC [3]: 14.4 µg/mL (≈ 30.9 µM)
IC50 [4]: 14.42 µg/mL (≈ 30.9 µM)

CC(C)C(C(=O)O)N1C(N)=NNC1c1ccccc1O (stereo unspecified)
Ratio IC50 (Leishmania major [5]): 36
IC50 (Leishmania major [6]): 0.0312 µg/mL (≈ 0.112 µM)
Ratio IC50 (Leishmania major [7]): 36

CC1(c2ccccc2O)NN=C(N)N1C(Cc1cc2ccccc2[nH]1)C(=O)O (stereo unspecified)
Ratio IC50 (Leishmania major [5]): 36
IC50 (Leishmania major [6]): 0.0312 µg/mL (≈ 0.0822 µM)
Ratio IC50 (Leishmania major [7]): 36

CC(C)C(C(=O)O)N1C(N)=NNC1(C)c1ccccc1O (stereo unspecified)
Ratio IC50 (Leishmania major [5]): 36
IC50 (Leishmania major [6]): 0.0312 µg/mL (≈ 0.107 µM)
Ratio IC50 (Leishmania major [7]): 36

CCCCSC1NN=C(/C=C/C=C/c2ccc3c(c2)OCO3)N1C1CCCCC1 (stereo unspecified)
IC50 (Trypanosoma cruzi [8]): 3.61 µM
IC50 (Trypanosoma cruzi [9]): 3.18 µM

CCN(CC)c1ccc2cc(C(=O)NNC(=O)Cn3nc(C)n(N)c3=O)c(=O)oc2c1
IC50 (BT-20): 3.1 µg/mL (≈ 7.22 µM)
IC50 (DU-145): 3.1 µg/mL (≈ 7.22 µM)
IC50 (A549): 3.1 µg/mL (≈ 7.22 µM)
IC50 [1]: 3.1 µg/mL (≈ 7.22 µM)

O=[N+]([O-])c1ccc(C2=Nn3c(nnc3-c3ccc(Br)cc3)CC2)cc1
MIC [3]: 0.25 µg/mL (≈ 0.628 µM)
IC50 [4]: 86.39 µg/mL (≈ 217 µM)

Brc1ccc(/C=C/c2nnc3c4ccccc4cnn23)cc1
MIC [10]: 0.5 µg/mL (≈ 1.42 µM)

O=C(OC1CCN(CC(O)(Cn2cncn2)c2ccc(F)cc2F)CC1)C(F)(F)F (stereo unspecified)
MIC80 (Candida albicans): 9 nM (≈ 3.91 ng/mL)

COc1ccc(-c2cc(-c3c(C)nn(-c4ccccc4)c3-n3cncn3)n3c(c2)nc2ccccc23)cc1
IC50 (Plasmodium falciparum; [13]): 0.041 µg/mL (≈ 0.0824 µM)

Cc1nn(-c2ccccc2)c(=O)n1-n1c(-c2cc3ccccc3oc2=O)cs/c1=N\c1ccccc1
IC50 (MDA-MB-231): 0.16 µg/mL (≈ 0.324 µM)

C#Cc1nnc2c3ccccc3cnn12
MIC [10]: 0.5 µg/mL (≈ 2.57 µM)

Cc1nn(-c2ccccc2)c(-n2cncn2)c1-c1cc(-c2ccc(O)cc2)cc2nc3ccccc3n12
IC50 (Plasmodium falciparum): 0.041 µg/mL (≈ 0.0848 µM)
IC50 (Plasmodium falciparum; [13]): 0.054 µg/mL (≈ 0.112 µM)

Nn1c(Cc2ccc(Br)cc2)nn(CC(=O)NNC(=O)c2cc3cc(Cl)cc(Cl)c3oc2=O)c1=O
IC50 (BT-20): 3.1 µg/mL (≈ 5.32 µM)
IC50 (DU-145): 3.1 µg/mL (≈ 5.32 µM)
IC50 (A549): 3.1 µg/mL (≈ 5.32 µM)
IC50 [1]: 3.1 µg/mL (≈ 5.32 µM)

CC(C)C(=O)OC1CCN(CC(O)(Cn2cncn2)c2ccc(F)cc2F)CC1 (stereo unspecified)
MIC80 (Candida albicans): 9 nM (≈ 3.68 ng/mL)

COc1ccc(/C=N/n2c(S)nnc2CNC(=O)c2ccc(C)cc2)cc1
MIC (Staphylococcus aureus): 3.12 µg/mL (≈ 8.19 µM)

CCCC(=O)OC1CCN(CC(O)(Cn2cncn2)c2ccc(F)cc2F)CC1 (stereo unspecified)
MIC80 (Candida albicans): 9 nM (≈ 3.68 ng/mL)

COc1ccc(-n2ncn(Cc3cn(Cc4cc(=O)oc5ccc(Cl)cc45)nn3)c2=O)cc1
MIC [11]: 1.6 µg/mL (≈ 3.44 µM)
Ratio [12]: 2

CCCCCCCCCNC(=O)Cc1nnc2c3ccccc3cnn12
MIC [10]: 0.5 µg/mL (≈ 1.41 µM)

OC1(c2nnc(-c3ccncc3)[nH]2)CCCCC1
MIC [2]: 0.59 µg/mL (≈ 2.42 µM)

COc1ccc(-n2ncn(Cc3cn(Cc4cc(=O)oc5ccc(C)cc45)nn3)c2=O)cc1
MIC [11]: 1.6 µg/mL (≈ 3.6 µM)
Ratio [12]: 2

O=C(CCl)OC1CCN(CC(O)(Cn2cncn2)c2ccc(F)cc2F)CC1 (stereo unspecified)
MIC80 (Candida albicans): 9 nM (≈ 3.73 ng/mL)

Cc1ccc(-c2cc(-c3c(C)nn(-c4ccccc4)c3-n3cncn3)n3c(c2)nc2ccccc23)cc1
IC50 (Plasmodium falciparum; [13]): 0.041 µg/mL (≈ 0.0851 µM)

COc1ccc(-n2ncn(Cc3cn(Cc4cc(=O)oc5ccc6ccccc6c45)nn3)c2=O)cc1
MIC [11]: 1.6 µg/mL (≈ 3.33 µM)
Ratio [12]: 2

CC(C)=CCC/C(C)=C/COc1ccc(/C=C/c2nnc3c4ccccc4cnn23)cc1
MIC [10]: 0.5 µg/mL (≈ 1.18 µM)

Cc1nn(-c2ccccc2)c(-n2cncn2)c1-c1cc(-c2ccc(-c3cccs3)cc2)cc2nc3ccccc3n12
IC50 (Plasmodium falciparum; [13]): 0.041 µg/mL (≈ 0.0746 µM)

Cc1nn(-c2ccccc2)c(=O)n1-n1c(-c2cc3ccccc3oc2=O)cs/c1=N\c1ccc(Cl)cc1
IC50 (MDA-MB-231): 0.16 µg/mL (≈ 0.303 µM)

C[C@@H]1[C@H](O)[C@@H](C)/C=C/C=C/C=C/C=C/C=C/C=C/C=C/[C@H](O[C@@H]2O[C@H](C)[C@@H](O)[C@H](N)[C@@H]2O)C[C@@H]2O[C@](O)(C[C@@H](O)C[C@@H](O)[C@H](O)CC[C@@H](O)C[C@@H](O)CC(=O)O[C@H]1C)C[C@H](O)[C@H]2C(=O)O [AMPHOTERICIN B]
IC50 (Leishmania major [6]): 0.0472 µg/mL (≈ 0.0511 µM)

CC1CCC(O)(c2nnc(-c3ccncc3)[nH]2)CC1 (stereo unspecified)
MIC [2]: 0.59 µg/mL (≈ 2.28 µM)
